≈ marks a conversion by molar mass, not a printed value.
Each molecule was assayed on M. tuberculosis. Conditions: pH 6.8.
Assay type: cell-based, Mycobacterium tuberculosis

Compound | MIC in the media 7H9 [µg/mL] | MIC in the media L-Ala [µg/mL] | MIC in the media SBA [µg/mL] | MIC in the media SLac [µg/mL]
CCN(CC)CCOc1ccc(C(=C(Cl)c2ccccc2)c2ccccc2)cc1.O=C(O)CC(O)(CC(=O)O)C(=O)O (mixture of isomers) [compound 35770] | ≥ 14.95 | 1.91 | 1.91 | 0.96
N#CC(c1ccccc1)C(CC(=NO)c1ccccc1)c1ccccc1 (mixture of isomers) [compound 186200] | ≥ 136.16 | 17.02 | 34.04 | 2.13
COC(=O)c1cccc([N+](=O)[O-])c1 [compound 1327] | ≥ 72.48 | 9.06 (≈ 50 µM) | 4.53 (≈ 25 µM) | 2.27 (≈ 12.5 µM)
NC(=O)c1ccc([N+](=O)[O-])cc1 [compound 2902] | ≥ 66.44 | 16.61 (≈ 100 µM) | 33.22 (≈ 200 µM) | 8.31 (≈ 50 µM)
CC(C)c1ccc2c(c1)CCC1C(C)(C(=O)O)CCCC21C (centres unmarked) [compound 2952] | ≥ 30.04 | 3.76 (≈ 12.5 µM) | 7.51 (≈ 25 µM) | 1.88 (≈ 6.26 µM)
O=Nc1ccc(O)c2ncccc12 [compound 3852] | ≥ 4.36 | 2.18 (≈ 12.5 µM) | 2.18 (≈ 12.5 µM) | 1.09 (≈ 6.26 µM)
Oc1c(Cl)cc(Cl)c2cccnc12 [compound 3904] | ≥ 4 | 0.03 (≈ 0.14 µM) | 0.03 (≈ 0.14 µM) | 0.03 (≈ 0.14 µM)
CCOC(=O)c1ccc([N+](=O)[O-])cc1 [compound 6763] | ≥ 78.08 | 9.76 (≈ 50 µM) | 4.88 (≈ 25 µM) | 4.88 (≈ 25 µM)
COC(=O)c1cc([N+](=O)[O-])cc([N+](=O)[O-])c1 [compound 7317] | ≥ 90.44 | 11.31 (≈ 50 µM) | 5.65 (≈ 25 µM) | 5.65 (≈ 25 µM)
CCC(C)(C)c1ccc(Oc2cccc(C(=O)O)c2)cc1 [compound 7962] | ≥ 28.43 | 3.55 (≈ 12.5 µM) | 3.55 (≈ 12.5 µM) | 0.45 (≈ 1.58 µM)
CN(C)c1ccc(N=Nc2ccccn2)cc1 [compound 9358] | ≥ 22.63 | 5.66 (≈ 25 µM) | 1.41 (≈ 6.23 µM) | 1.41 (≈ 6.23 µM)
N=C(N)c1ccc(OCCCCCOc2ccc(C(=N)N)cc2)cc1 [compound 9921] | ≥ 8.51 | 2.13 (≈ 6.26 µM) | 4.26 (≈ 12.5 µM) | 1.09 (≈ 3.2 µM)
Oc1ccc(Cc2ccccc2Cl)c(O)c1 [compound 11149] | ≥ 23.47 | 5.87 (≈ 25 µM) | 2.93 (≈ 12.5 µM) | 1.47 (≈ 6.26 µM)
Oc1ccc(Cc2ccc(Cl)cc2)c(O)c1 [compound 11150] | ≥ 23.47 | 5.87 (≈ 25 µM) | 2.93 (≈ 12.5 µM) | 1.47 (≈ 6.26 µM)
COc1ccc2nc3cc(Cl)ccc3c(Nc3cc(C(C)C)c(O)cc3C)c2c1 [compound 13051] | ≥ 20.35 | 2.54 (≈ 6.24 µM) | 2.54 (≈ 6.24 µM) | 1.30 (≈ 3.19 µM)
NC(=O)c1cccnc1 [compound 13128] | ≥ 800 | 400 (≈ 3280 µM) | 400 (≈ 3280 µM) | 400 (≈ 3280 µM)
COc1cc(N)c2ncccc2c1 [compound 13573] | ≥ 8.71 | 8.71 (≈ 50 µM) | 8.71 (≈ 50 µM) | 17.42 (≈ 100 µM)
NC(=O)c1cnccn1 [compound 14911] | ≥ 800 | 200 (≈ 1620 µM) | 100 (≈ 812 µM) | 200 (≈ 1620 µM)

Compound | MIC in the media 7H9 [µg/mL] | MIC in the media L-Ala [µg/mL] | MIC in the media SBA [µg/mL] | MIC in the media SLac [µg/mL]
CCCOC(=O)c1ccc(N)cc1 [compound 23516] | ≥ 800 | 0.12 (≈ 0.67 µM) | 0.25 (≈ 1.39 µM) | 0.25 (≈ 1.39 µM)
CN(C)CCCN1c2ccc3ccccc3c2Sc2cccc(Cl)c21 [compound 24113] | ≥ 9.22 | 2.31 (≈ 6.26 µM) | 2.31 (≈ 6.26 µM) | 1.18 (≈ 3.2 µM)
CCOc1ccc(Nc2c3ccccc3nc3ccccc23)cc1 [compound 30205] | ≥ 1.97 | 1.97 (≈ 6.27 µM) | 3.93 (≈ 12.5 µM) | 1.97 (≈ 6.27 µM)
COC(=O)c1ccc(N)cc1O [compound 30263] | ≥ 4.18 | 1.05 (≈ 6.28 µM) | 4.18 (≈ 25 µM) | 1.05 (≈ 6.28 µM)
CCCCCc1cc(O)cc2c1Oc1cc(O)cc(C(=O)CCCC)c1C(=O)O2 [compound 31867] | ≥ 39.84 | 4.98 (≈ 12.5 µM) | 2.49 (≈ 6.25 µM) | 0.64 (≈ 1.61 µM)
CCOC(=O)c1cccc([N+](=O)[O-])c1 [compound 32740] | ≥ 78.08 | 2.44 (≈ 12.5 µM) | 4.88 (≈ 25 µM) | 2.44 (≈ 12.5 µM)
O=C1CC(c2ccc(O)cc2)Oc2cc(O)cc(O)c21 (centres unmarked) [compound 34875] | ≥ 27.23 | 6.81 (≈ 25 µM) | 6.81 (≈ 25 µM) | 1.70 (≈ 6.24 µM)
C=C1C(=O)OC2CC1C(OC(C)=O)C/C(C)=C/CC/C(C)=C\CCC2(C)O (centres unmarked) [compound 36437] | ≥ 37.65 | 9.41 (≈ 25 µM) | 4.71 (≈ 12.5 µM) | 2.35 (≈ 6.24 µM)
O=c1c(-c2ccc(O)cc2)coc2cc(O)cc(O)c12 [compound 36586] | ≥ 108.10 | 13.51 (≈ 50 µM) | 13.51 (≈ 50 µM) | 1.69 (≈ 6.25 µM)
NC(=O)c1cccc(N)c1 [compound 36962] | ≥ 54.48 | 13.62 (≈ 100 µM) | 13.62 (≈ 100 µM) | 13.62 (≈ 100 µM)
NC(=O)c1ccc(N)cc1 [compound 36963] | ≥ 54.48 | 6.81 (≈ 50 µM) | 13.62 (≈ 100 µM) | 3.41 (≈ 25 µM)
NC(=O)c1cccc([N+](=O)[O-])c1 [compound 37327] | ≥ 66.44 | 66.44 (≈ 400 µM) | 33.22 (≈ 200 µM) | 66.44 (≈ 400 µM)
C=CCOc1c(CCC)cc(CCC)cc1C(N)=O [compound 37955] | ≥ 26.14 | 13.07 (≈ 50 µM) | 13.07 (≈ 50 µM) | 3.27 (≈ 12.5 µM)
CCOC(=O)CCCCCCCCCCCCC1C=CCC1 (centres unmarked) [compound 38010] | ≥ 30.85 | 3.86 (≈ 12.5 µM) | 1.93 (≈ 6.26 µM) | 1.93 (≈ 6.26 µM)
COC(C(=O)C(O)C(C)O)C1Cc2cc3cc(OC4CC(OC(C)=O)C(OC5CC(O)C(OC)C(C)O5)C(C)O4)cc(O)c3c(O)c2C(=O)C1OC1CC(OC2CC(OC3CC(C)(O)C(OC(=O)C(C)C)C(C)O3)C(O)C(C)O2)C(O)C(C)O1 (centres unmarked) [compound 38270] | ≥ 59.87 | 7.48 (≈ 6.25 µM) | 3.83 (≈ 3.2 µM) | 3.83 (≈ 3.2 µM)
NC(=O)c1ccccc1N [compound 38768] | ≥ 54.48 | 54.48 (≈ 400 µM) | 54.48 (≈ 400 µM) | 54.48 (≈ 400 µM)
O=C(O)c1cc2ccccc2cc1Nc1ccccc1 [compound 40275] | ≥ 26.33 | 3.29 (≈ 12.5 µM) | 3.29 (≈ 12.5 µM) | 0.84 (≈ 3.19 µM)

Reference: US20240148723A1, “MYCOBACTERIUM TUBERCULOSIS COMPOSITIONS AND METHODS” (priority 2021, published 2024)
